# Values of other authors, collected in patent publication US20130142871A1, “ORAL DOSAGE FORM OF DEFERASIROX” (Ratiopharm GmbH, priority 2010, published 2013).
# Conditions: see WO 2007/045445, page 2, third paragraph
structure (smiles),measurement,value
"O=C(O)c1ccc(-n2nc(-c3ccccc3O)nc2-c2ccccc2O)cc1 [Deferasirox, 4-[(3Z,5E)-3,5-bis(6-oxo-1-cyclohexa-2,4-dienylidene)-1,2,4-triazolidine-1-yl]benzoic acid]",solubility in water,poorly soluble in water
